Results published in article PMC4119213 (Translational Psychiatry, 2014).

Legend:
[1] = target: rKOR (rat κ-opioid receptor) (Rattus norvegicus, UniProt P34975); assay: BRET CAMYEL cAMP assay, HEK-293T; format: cell-based
[2] = target: hMOR (human μ-opioid receptor) (Homo sapiens, UniProt P35372); assay: radioligand displacement
[3] = target: hDOR (human δ-opioid receptor) (Homo sapiens, UniProt P41143); assay: radioligand displacement
[4] = target: mDOR (mouse δ-opioid receptor) (Mus musculus, UniProt P32300); assay: BRET G-protein activation, HEK-293T; format: cell-based
[5] = target: KOR (human κ-opioid receptor, PDSP binding) (Homo sapiens, UniProt P41145); assay: radioligand displacement; settings: n=4
KOR (human κ-opioid receptor, PDSP binding), sequence (P41145 whole entry): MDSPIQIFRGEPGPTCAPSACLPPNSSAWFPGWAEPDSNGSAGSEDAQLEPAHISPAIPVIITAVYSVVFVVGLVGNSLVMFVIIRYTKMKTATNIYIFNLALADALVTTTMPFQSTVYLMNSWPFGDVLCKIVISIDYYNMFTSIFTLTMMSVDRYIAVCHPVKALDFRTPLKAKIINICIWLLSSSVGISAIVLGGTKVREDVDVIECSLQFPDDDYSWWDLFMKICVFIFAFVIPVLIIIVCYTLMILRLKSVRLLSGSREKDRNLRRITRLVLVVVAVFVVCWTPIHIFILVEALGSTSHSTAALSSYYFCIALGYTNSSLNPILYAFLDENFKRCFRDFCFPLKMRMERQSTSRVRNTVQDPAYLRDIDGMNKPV

hMOR (human μ-opioid receptor), sequence (P35372 whole entry): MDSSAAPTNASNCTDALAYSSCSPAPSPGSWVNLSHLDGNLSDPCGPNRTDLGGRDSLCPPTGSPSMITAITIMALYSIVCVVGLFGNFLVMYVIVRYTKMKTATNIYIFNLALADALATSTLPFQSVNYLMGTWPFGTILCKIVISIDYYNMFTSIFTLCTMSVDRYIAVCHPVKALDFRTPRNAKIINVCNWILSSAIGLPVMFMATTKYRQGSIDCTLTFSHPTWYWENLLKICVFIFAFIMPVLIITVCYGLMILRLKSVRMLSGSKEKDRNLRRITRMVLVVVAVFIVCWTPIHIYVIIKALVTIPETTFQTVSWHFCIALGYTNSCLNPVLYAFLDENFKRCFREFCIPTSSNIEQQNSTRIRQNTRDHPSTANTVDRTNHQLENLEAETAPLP
mDOR (mouse δ-opioid receptor), sequence (P32300 whole entry): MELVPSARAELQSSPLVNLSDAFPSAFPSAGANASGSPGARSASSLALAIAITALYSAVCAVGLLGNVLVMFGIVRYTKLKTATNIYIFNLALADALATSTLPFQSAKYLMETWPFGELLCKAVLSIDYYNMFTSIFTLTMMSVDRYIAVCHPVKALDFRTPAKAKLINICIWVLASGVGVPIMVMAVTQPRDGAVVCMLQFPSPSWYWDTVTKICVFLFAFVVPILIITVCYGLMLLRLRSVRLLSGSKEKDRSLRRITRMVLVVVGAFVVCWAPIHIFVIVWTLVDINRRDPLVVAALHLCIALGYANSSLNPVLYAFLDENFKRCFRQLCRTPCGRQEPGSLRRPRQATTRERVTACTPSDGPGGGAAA
hDOR (human δ-opioid receptor), sequence (P41143 whole entry): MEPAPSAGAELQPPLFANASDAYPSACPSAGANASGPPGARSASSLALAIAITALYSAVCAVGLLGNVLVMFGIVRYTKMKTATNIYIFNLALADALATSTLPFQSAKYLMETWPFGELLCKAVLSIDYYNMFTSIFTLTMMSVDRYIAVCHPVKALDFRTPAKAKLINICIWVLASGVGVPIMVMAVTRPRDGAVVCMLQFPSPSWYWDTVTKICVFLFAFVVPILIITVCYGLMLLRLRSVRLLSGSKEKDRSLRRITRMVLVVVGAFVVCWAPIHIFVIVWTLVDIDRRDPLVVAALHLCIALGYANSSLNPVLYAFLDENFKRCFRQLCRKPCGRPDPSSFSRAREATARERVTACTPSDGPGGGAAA
rKOR (rat κ-opioid receptor), sequence (P34975 whole entry): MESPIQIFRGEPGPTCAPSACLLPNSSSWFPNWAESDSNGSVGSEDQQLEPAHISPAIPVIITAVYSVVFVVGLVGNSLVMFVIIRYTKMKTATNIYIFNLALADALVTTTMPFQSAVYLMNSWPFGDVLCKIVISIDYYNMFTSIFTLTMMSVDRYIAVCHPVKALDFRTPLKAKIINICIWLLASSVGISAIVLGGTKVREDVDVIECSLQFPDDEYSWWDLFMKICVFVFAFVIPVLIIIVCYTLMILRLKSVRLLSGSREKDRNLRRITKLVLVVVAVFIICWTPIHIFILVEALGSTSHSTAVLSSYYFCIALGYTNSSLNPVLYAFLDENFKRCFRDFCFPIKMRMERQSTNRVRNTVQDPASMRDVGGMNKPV

SMILES | IC50 [1] | Ki [2] | Ki [3] | EC50 [4] | Ki [5]
Oc1ccc2c3c1O[C@H]1c4[nH]c5c(c4C[C@@]4(O)[C@@H](C2)N(CC2CC2)CC[C@]314)C[C@@]1(O)[C@H]2Cc3ccc(O)c4c3[C@@]1(CCN2CC1CC1)[C@H]5O4 [nor-binaltorphimine] | 28.1 ± 27.2 nM |  |  |  | 
CN1c2ccccc2C(NCCCCCCC(=O)O)c2ccc(Cl)cc2S1(=O)=O (centres unmarked) [tianeptine] |  | 383 ± 183 nM | > 10000 nM | 14500 ± 6600 nM | Kis were determined at MOR, as well as at DOR and KOR
